What all share (format): cell-based, Plasmodium falciparum
Test [1] has as its system multidrug resistant strain Dd2. In words: SYBR green I-based parasite growth inhibition assay, Dd2 strain.
Test [2] concerns hemoglobin metabolism in P. falciparum ring and trophozoite stage parasites. Kind of test: Effect on hemoglobin degradation (intraparasitic hemoglobin content). The following applies: 10 μM, 24 h, relative to E64-treated cultures; listed as (±)-moxiquindole. Here is the method:
Owing to the fact that the DSIIQs are constructed from the THIQ pharmacophore of naphthylisoquinolines, which appear to target proteases involved in hemoglobin degradation, we assessed the effect of this DSIIQ on hemoglobin metabolism. Briefly, tightly synchronized ring and trophozoite stage parasites were treated with test compounds for 24 h followed by parasite isolation and quantification of the intraparasitic hemoglobin contents.
To investigate drug effects on hemoglobin degradation, early ring and mid-trophozoite stage parasites (1.5% hematocrit, 5% parasitemia) were co-cultured with the test compounds or experimental controls (0.1% DMSO, chloroquine, artemisinin NITD609 and E64) at a final concentration of 10 μM. The cultures were incubated at 37° C. and 5% CO2 for 24 h. Following incubation, inhibitors were removed by centrifugation at 1800 rpm for 5 min. The pellets were washed in an equal volume of 1×PBS and re-suspended in same volume of 0.1% saponin (in 1×PBS) for 3 min. Isolated parasites were pelleted at 2500 rpm for 5 min and washed twice in an equal volume of 1×PBS. The resulting parasite pellets were permeabilized by treatment in 20 μL of 1% Triton X-100 (in 1×PBS) for 5 min. Intraparasitic hemoglobin content was measured at 550 nm using a Nanodrop spectrophotometer, and folds increase in intra-parasite hemoglobin content was calculated relative to the E64-treated controls.

For test [3], the system named is Malaria parasites (ring-stage parasitized erythrocytes). Kind of test: Drug-combination (drug-drug interaction) studies, SYBR-Green I. On the procedure: In view of the overlapping modes of action between the hybrids and some known antimalarial drugs in terms of targeted cellular processes, we investigated the interaction between these compounds at variable combination ratios. Malaria parasites were continuously cultured and synchronized as earlier described prior to the assay.
Briefly, two-fold drug dilutions were prepared using a variable potency ratio drug combination approach, starting at 5EC50A: 0EC50B to 0EC50A: 5EC50B in serum-free medium, where A and B represent the different partner molecules.
The test was run for 72 h and terminated when the untreated parasites were at the early trophozoite stage of the second cycle. Parasite viability was assessed by the SYBR-Green I fluorescence-based assay as earlier described. Dose-response curves and EC50 values of each combination and drug alone were obtained using GraphPad Prism v.5.0 and Microsoft Excel was used to calculate mean EC50 values and the standard error of the mean.

“Also recorded” adds a separate entry of the source.

In test [1], `COc1cc2c(cc1OC)C1(NCC2)C(=O)Nc2ccc(Cl)cc21` (stereo not drawn) [Compound 8b] registered a cross-resistance index of 0.935. Besides, the EC50 amounted to 1730 nM in test [1] (Pf Dd2) and 1730 nM in test [1] (Pf Dd2, 0.078 μM to 10 μM). For the same molecule, the “intraparasitic hemoglobin content / accumulation” value in test [2] is reported as “significantly higher; also recorded: accumulation of intra-parasitic hemoglobin”. Also, the “combination index (CI)” value in test [3] (in combination with artemisinin) stood at 1.440; in test [3] (in combination with chloroquine) it was 1.478.

For orientation: EC50 means the concentration at which the effect is half-maximal. Higher therefore signals a need for much substance.

The values are drawn from patent US20230132973A1, “DIHYDRO-SPIRO[INDOLINE-3:1'-iSOQUINOLIN]-2-ONES AS ANTIMALARIAL AGENTS” (The University of Buea, priority 2020, published 2023).
